Read-outs that look alike come from different tables or passages of the source.
Legend:
BRAF = biological target: T1, BRAF (Homo sapiens, UniProt P15056); test: In vitro kinase assay (Z'-LYTE, Invitrogen); format: biochemical; details: compound at 100 nM, ATP Km apparent, read-out: % of inhibition of the kinase compared to the control
T1 construct: purchased Invitrogen
Method: (§1) The inhibitory activity of the compounds on 7 kinases (BRAF, EGFR (ErbB1), EGFR (ErbB1) T790M L858R, FGFR2, KDR (VEGFR2), PDGFRA (PDGFR alpha), SRC) was evaluated by Invitrogen using the Z′-LYTE® technology. Briefly, the Z′-LYTE® biochemical assay employs a fluorescence-based, coupled-enzyme format and is based on the differential sensitivity of phosphorylated and non-phosphorylated peptides to proteolytic cleavage. The peptide substrate is labeled with two fluorophores—one at each end—that make up a FRET pair. A ratiometric method, which calculates the ratio (the Emission Ratio) of donor emission to acceptor emission after excitation of the donor fluorophore at 400 nm, is used to quantitate reaction progress.
(§2) The compounds are screened in 1% DMSO (final) in the well. For 10 point titrations, 3-fold serial dilutions are conducted from the starting concentration. All Peptide/Kinase Mixtures are diluted to a 2× working concentration in the appropriate Kinase Buffer. All ATP Solutions are diluted to a 4× working concentration in Kinase Buffer (50 mM HEPES pH 7.5, 0.01% BRIJ-35, 10 mM MgCl2, 1 mM EGTA). ATP Km apparent is previously determined using a Z′-LYTE® assay.
(§3) Each compound was incubated at a concentration of 100 nM and the tables 21 to 27 summarize the results obtained showing the inhibitory power of a compound.

EGFR (ErbB1) = biological target: T2, EGFR (ErbB1) (Homo sapiens, UniProt P00533); test: In vitro kinase assay (Z'-LYTE, Invitrogen); format: biochemical; details: compound at 100 nM, ATP Km apparent, read-out: % of inhibition of the kinase compared to the control
T2 construct: purchased Invitrogen
Method: as §1, §2, §3

EGFR (ErbB1) T790M L858R = biological target: T3, EGFR (ErbB1) T790M L858R (Homo sapiens, UniProt P00533, L858R/T790M); test: In vitro kinase assay (Z'-LYTE, Invitrogen); format: biochemical; details: compound at 100 nM, ATP Km apparent, read-out: % of inhibition of the kinase compared to the control
T3 construct: purchased Invitrogen
Method: as §1, §2, §3

FGFR2 = biological target: T4, FGFR2 (Homo sapiens, UniProt P21802); test: In vitro kinase assay (Z'-LYTE, Invitrogen); format: biochemical; details: compound at 100 nM, ATP Km apparent, read-out: % of inhibition of the kinase compared to the control
T4 construct: purchased Invitrogen
Method: as §1, §2, §3

KDR (VEGFR2) = biological target: T5, KDR (VEGFR2) (Homo sapiens, UniProt P35968); test: In vitro kinase assay (Z'-LYTE, Invitrogen); format: biochemical; details: compound at 100 nM, ATP Km apparent, read-out: % of inhibition of the kinase compared to the control
T5 construct: purchased Invitrogen
Method: as §1, §2, §3

PDGFRA (PDGFR alpha) = biological target: T6, PDGFRA (PDGFR alpha) (Homo sapiens, UniProt P16234); test: In vitro kinase assay (Z'-LYTE, Invitrogen); format: biochemical; details: compound at 100 nM, ATP Km apparent, read-out: % of inhibition of the kinase compared to the control
T6 construct: purchased Invitrogen
Method: as §1, §2, §3

SRC = biological target: T7, SRC (Homo sapiens, UniProt P12931); test: In vitro kinase assay (Z'-LYTE, Invitrogen); format: biochemical; details: compound at 100 nM, ATP Km apparent, read-out: % of inhibition of the kinase compared to the control
T7 construct: purchased Invitrogen
Method: as §1, §2, §3

HUVEC cells = test: In vitro cell proliferation assay (MTT); format: cell-based; details: Homo sapiens, 72 hr, read-out: EC50, anti-proliferative activity
Method: (§4) Cancer cell lines (5×10^3 cells per well) or HUVEC (1×10^4 cells per well) or HRMEC (1×10^4 cells per well) were distributed in 96-well plates and incubating in duplicate with escalating concentrations (10 nM to 3 μM) of compounds for 72 hr. Cell proliferation was measured using MTT (3[4,5-dimethylthiazol-2-yl]-2,5-diphenyltetrazolium bromide). The EC50 values were calculated from sigmoidal dose-response curves utilizing Prism 5.0 from Graph-Pad Software (GraphPad Software, La Jolla, Calif., USA), with values normalized to those of DMSO-treated control wells (0%) and 1% SDS control wells (100%).

HepG2 cell line = test: In vitro cell proliferation assay (MTT); format: cell-based; details: Homo sapiens, HepG2, 72 hr, read-out: EC50, anti-proliferative activity
Method: as §4

HuCCT1 cell line = test: In vitro cell proliferation assay (MTT); format: cell-based; details: Homo sapiens, HuCCT-1, HuCCT1, 72 hr, EC50 ≧ 1 μM, read-out: EC50, anti-proliferative activity
Method: as §4

A549 cell line = test: In vitro cell proliferation assay (MTT); format: cell-based; details: Homo sapiens, A549, 72 h, read-out: EC50, anti-proliferative activity
Method: as §4

HeLa cell line = test: In vitro cell proliferation assay (MTT); format: cell-based; details: Homo sapiens, 72 hr, read-out: EC50, anti-proliferative activity
Method: as §4

MDA-MB-231 cell line = test: In vitro cell proliferation assay (MTT); format: cell-based; details: Homo sapiens, MDA-MB-231, 72 hr, read-out: EC50, anti-proliferative activity
Method: as §4

T4 sequence (P21802 22-821): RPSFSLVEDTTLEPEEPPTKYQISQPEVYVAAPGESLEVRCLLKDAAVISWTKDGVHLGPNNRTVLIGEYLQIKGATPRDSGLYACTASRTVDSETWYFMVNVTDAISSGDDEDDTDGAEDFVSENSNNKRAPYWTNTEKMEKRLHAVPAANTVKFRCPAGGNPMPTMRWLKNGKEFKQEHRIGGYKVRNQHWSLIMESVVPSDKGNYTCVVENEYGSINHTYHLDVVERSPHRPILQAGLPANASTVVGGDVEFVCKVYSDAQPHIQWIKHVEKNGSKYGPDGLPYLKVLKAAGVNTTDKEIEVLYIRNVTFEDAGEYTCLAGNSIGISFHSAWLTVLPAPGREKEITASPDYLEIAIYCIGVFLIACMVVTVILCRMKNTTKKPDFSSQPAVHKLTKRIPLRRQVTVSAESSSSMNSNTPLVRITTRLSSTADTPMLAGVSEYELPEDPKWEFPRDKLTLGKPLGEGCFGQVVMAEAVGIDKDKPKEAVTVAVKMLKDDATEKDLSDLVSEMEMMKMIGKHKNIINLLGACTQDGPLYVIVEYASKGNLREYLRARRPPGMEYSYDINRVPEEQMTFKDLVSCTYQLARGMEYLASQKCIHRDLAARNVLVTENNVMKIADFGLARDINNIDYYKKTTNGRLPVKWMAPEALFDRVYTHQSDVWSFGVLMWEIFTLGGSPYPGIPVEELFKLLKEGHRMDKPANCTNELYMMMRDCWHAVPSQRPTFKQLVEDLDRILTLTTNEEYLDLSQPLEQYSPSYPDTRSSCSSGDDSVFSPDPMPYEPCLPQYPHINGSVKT
T7 sequence (P12931 whole entry): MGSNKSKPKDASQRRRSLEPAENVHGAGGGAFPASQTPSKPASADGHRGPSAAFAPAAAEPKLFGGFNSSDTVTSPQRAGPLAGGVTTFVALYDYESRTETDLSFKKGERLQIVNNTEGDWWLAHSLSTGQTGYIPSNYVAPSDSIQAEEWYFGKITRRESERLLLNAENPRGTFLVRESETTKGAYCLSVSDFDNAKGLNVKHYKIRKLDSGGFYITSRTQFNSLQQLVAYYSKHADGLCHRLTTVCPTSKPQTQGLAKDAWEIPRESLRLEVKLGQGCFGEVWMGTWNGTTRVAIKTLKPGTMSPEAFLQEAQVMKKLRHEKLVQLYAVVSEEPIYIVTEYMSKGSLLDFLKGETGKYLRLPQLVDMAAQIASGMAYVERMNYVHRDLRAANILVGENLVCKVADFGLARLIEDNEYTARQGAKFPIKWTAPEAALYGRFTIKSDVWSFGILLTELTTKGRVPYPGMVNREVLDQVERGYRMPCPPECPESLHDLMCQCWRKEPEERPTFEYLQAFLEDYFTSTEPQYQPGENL
T1 sequence (P15056 whole entry): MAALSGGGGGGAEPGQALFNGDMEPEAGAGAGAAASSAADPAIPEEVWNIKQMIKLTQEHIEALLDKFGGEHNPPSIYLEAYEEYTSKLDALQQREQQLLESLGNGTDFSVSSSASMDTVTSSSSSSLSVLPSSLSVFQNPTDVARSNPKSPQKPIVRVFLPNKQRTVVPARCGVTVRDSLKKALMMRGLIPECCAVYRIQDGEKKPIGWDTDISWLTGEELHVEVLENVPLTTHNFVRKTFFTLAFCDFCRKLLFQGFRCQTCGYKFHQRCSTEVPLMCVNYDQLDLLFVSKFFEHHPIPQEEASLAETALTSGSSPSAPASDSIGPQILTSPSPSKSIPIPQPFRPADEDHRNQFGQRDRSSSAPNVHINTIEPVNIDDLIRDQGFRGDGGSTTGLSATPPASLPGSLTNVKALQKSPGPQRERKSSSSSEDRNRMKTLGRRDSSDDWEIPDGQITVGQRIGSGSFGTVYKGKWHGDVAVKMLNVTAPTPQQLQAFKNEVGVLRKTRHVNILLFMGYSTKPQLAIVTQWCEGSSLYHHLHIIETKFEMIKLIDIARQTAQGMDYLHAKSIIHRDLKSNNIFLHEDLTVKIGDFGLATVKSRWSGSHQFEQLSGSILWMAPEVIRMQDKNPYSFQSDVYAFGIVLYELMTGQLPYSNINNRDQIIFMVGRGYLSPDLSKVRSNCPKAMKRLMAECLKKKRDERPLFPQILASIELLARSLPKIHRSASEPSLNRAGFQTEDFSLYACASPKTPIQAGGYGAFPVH
T5 sequence (P35968 20-1356): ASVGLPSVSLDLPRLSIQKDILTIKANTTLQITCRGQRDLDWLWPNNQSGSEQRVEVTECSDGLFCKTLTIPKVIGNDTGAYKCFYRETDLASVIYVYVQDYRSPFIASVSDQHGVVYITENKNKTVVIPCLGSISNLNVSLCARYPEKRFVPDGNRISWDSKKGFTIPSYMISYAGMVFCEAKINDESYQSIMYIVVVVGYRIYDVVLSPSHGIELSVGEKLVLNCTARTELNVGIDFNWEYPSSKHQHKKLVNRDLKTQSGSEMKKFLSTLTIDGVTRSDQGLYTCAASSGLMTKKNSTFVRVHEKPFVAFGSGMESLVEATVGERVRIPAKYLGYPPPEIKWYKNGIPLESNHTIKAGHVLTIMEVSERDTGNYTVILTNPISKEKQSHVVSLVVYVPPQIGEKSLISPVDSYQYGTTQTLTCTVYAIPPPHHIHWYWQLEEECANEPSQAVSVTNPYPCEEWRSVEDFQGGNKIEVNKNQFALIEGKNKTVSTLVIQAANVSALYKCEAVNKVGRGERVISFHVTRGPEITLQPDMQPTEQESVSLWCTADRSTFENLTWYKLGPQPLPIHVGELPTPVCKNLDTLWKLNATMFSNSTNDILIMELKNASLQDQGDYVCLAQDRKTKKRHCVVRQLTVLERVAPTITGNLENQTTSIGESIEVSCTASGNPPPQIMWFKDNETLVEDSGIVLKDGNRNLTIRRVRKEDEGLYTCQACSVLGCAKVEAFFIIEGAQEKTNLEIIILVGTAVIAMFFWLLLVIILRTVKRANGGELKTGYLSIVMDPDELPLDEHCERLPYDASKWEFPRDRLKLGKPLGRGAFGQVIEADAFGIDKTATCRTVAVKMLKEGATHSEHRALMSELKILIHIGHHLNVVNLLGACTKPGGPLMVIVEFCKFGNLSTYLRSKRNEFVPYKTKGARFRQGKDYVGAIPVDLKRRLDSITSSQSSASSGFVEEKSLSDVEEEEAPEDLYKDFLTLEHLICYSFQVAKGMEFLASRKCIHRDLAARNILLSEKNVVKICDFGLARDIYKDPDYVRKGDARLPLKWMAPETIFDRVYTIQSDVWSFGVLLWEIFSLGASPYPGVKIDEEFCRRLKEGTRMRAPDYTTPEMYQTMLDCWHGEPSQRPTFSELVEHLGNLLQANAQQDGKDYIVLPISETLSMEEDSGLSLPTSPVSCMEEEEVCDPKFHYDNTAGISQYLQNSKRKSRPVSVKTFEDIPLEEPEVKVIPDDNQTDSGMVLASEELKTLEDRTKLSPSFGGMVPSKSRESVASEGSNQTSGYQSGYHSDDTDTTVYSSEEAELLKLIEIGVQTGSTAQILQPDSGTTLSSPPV
T6 sequence (P16234 24-1089): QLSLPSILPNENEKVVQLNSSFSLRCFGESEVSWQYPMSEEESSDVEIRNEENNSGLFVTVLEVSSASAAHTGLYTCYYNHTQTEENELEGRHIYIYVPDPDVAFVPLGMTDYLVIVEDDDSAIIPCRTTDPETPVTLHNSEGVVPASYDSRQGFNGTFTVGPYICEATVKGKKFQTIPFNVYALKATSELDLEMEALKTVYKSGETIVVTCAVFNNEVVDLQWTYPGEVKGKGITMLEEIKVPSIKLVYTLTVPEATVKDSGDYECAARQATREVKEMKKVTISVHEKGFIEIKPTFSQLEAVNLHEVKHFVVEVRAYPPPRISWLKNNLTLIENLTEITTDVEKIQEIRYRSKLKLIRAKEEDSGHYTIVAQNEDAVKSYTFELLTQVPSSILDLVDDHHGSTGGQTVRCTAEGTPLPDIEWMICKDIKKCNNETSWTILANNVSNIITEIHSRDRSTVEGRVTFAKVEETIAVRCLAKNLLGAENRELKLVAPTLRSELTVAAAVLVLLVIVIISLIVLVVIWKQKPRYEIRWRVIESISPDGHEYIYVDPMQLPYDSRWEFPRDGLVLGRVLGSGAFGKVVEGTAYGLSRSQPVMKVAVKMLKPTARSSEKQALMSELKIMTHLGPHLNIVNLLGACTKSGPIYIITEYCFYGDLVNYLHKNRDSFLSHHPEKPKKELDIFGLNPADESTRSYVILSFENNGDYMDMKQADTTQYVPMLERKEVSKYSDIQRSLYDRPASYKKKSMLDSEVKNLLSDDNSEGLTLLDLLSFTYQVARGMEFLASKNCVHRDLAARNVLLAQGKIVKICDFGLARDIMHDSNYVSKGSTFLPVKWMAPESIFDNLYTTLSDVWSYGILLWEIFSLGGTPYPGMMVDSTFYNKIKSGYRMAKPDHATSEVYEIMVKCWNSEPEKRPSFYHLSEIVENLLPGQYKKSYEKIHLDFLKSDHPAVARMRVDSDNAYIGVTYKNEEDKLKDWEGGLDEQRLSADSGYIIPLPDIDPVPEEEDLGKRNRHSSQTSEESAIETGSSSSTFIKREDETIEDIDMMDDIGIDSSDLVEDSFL

inhibition at 0.1 µM (BRAF) [%]	inhibition at 0.1 µM (EGFR (ErbB1)) [%]	inhibition at 0.1 µM (FGFR2) [%]	inhibition at 0.1 µM (KDR (VEGFR2)) [%]	inhibition at 0.1 µM (PDGFRA (PDGFR alpha)) [%]	inhibition at 0.1 µM (SRC) [%]	EC50 (HepG2 cell line; EC50 ≧ 1 μM) [µM]	EC50 (A549 cell line; EC50 ≧ 1 μM) [µM]	EC50 (HeLa cell line; EC50 ≧ 1 μM) [µM]	EC50 (MDA-MB-231 cell line; EC50 ≧ 1 μM) [µM]	Compound	EC50 (HUVEC cells; EC50 ≧ 1 μM) [µM]	further results
< 50	≥ 50	< 50	< 50	< 50	< 50					CC(=O)c1cc2cc(C(=O)Nc3cc(NC(=O)c4cc(-n5cnc(C)c5)cc(C(F)(F)F)c4)ccc3C)cnc2[nH]1 [OR0723, 2-Acetyl-1H-pyrrolo[2,3-b]pyridine-5-carboxylic acid {2-methyl-5-[3-(4-methyl-imidazol-1-yl)-5-trifluoromethyl-benzoylamino]-phenyl}-amide]		inhibition at 0.1 µM (EGFR (ErbB1) T790M L858R): < 50%
						≥ 1				Cc1nc(Nc2ncc(C(=O)Nc3c(C)cccc3Cl)s2)cc(N2CCN(CCO)CC2)n1 [Dasatinib, reference compound]	≥ 1	EC50 (HuCCT1 cell line): ≥ 1 µM
< 50	< 50	< 50	< 50	≥ 50	< 50		≥ 1	≥ 1		CC(=O)c1cc2cc(CCc3cc(NC(=O)Nc4cccc(C(F)(F)F)c4)ccc3C)cnc2[nH]1 [OR0919, 1-{3-[2-(2-Acetyl-1H-pyrrolo[2,3-b]pyridin-5-yl)-ethyl]-4-methyl-phenyl}-3-(3-trifluoromethyl-phenyl)-urea]	≥ 1	EC50 (HepG2 cell line; EC50 ≦ 100 nM): ≤ 0.1 µM; EC50 (MDA-MB-231 cell line; 100 nM < EC50 < 1 μM): 0.1 to 1 µM
< 50	≥ 50	< 50	< 50	≥ 50	≥ 50	≥ 1	≥ 1	≥ 1	≥ 1	COC(=O)c1cc2cc(CCc3cc(NC(=O)C4CCC(C(F)(F)F)CC4)ccc3C)cnc2[nH]1 (centres unmarked) [OR1057, 5-(2-{2-Methyl-5-[(4-trifluoromethyl-cyclohexanecarbonyl)-amino]-phenyl)-ethyl)-1H-pyrrolo[2,3-b]pyridine-2-carboxylic acid methyl ester]	≥ 1	
< 50	≥ 50	≥ 50	≥ 50	≥ 50	≥ 50	≥ 1	≥ 1	≥ 1	≥ 1	COC(=O)c1cc2cc(CCc3ccc(C)c(NC(=O)c4cc(-n5cnc(C)c5)cc(C(F)(F)F)c4)c3)cnc2[nH]1 [OR1068, 5-(2-{4-Methyl-3-[3-(4-methyl-imidazol-1-yl)-5-trifluoromethyl-benzoylamino]-phenyl}-ethyl)-1H-pyrrolo[2,3-b]pyridine-2-carboxylic acid methyl ester]		EC50 (HUVEC cells; 100 nM < EC50 < 1 μM): 0.1 to 1 µM
< 50	≥ 50	≥ 50	≥ 50	≥ 50	≥ 50	≥ 1	≥ 1	≥ 1	≥ 1	COC(=O)c1cc2cc(C=Nc3cc(NC(=O)c4ccc(CN5CCN(C)CC5)c(C(F)(F)F)c4)ccc3C)cnc2[nH]1 [OR1070, 5-({2-Methyl-5-[4-(4-methyl-piperazin-1-ylmethyl)-3-trifluoromethyl-benzoylamino]-phenylimino}-methyl)-1H-pyrrolo[2,3-b]pyridine-2-carboxylic acid methyl ester]	≥ 1	
≥ 50	< 50	< 50	< 50	< 50	< 50		≥ 1	≥ 1	≥ 1	CC(=O)c1cc2cc(CCc3cc(NC(=O)Cc4cccc(C(F)(F)F)c4)ccc3C)cnc2[nH]1 [OR0966, N-{3-[2-(2-Acetyl-1H-pyrrolo[2,3-b]pyridin-5-yl)-ethyl]-4-methyl-phenyl}-2-(3-trifluoromethyl-phenyl)-acetamide]	≥ 1	EC50 (HepG2 cell line; 100 nM < EC50 < 1 μM): 0.1 to 1 µM
< 50	≥ 50	≥ 50	≥ 50							COC(=O)c1cc2cc(CCc3cccc(NC(=O)c4ccc(CN5CCN(C)CC5)c(C(F)(F)F)c4)c3)cnc2[nH]1 [OR0921, 5-(2-{3-[4-(4-Methyl-piperazin-1-ylmethyl)-3-trifluoromethyl-benzoylamino]-phenyl}-ethyl)-1H-pyrrolo[2,3-b]pyridine-2-carboxylic acid methyl ester]		EC50 (A549 cell line; 100 nM < EC50 < 1 μM): 0.1 to 1 µM; EC50 (HUVEC cells; EC50 ≦ 100 nM): ≤ 0.1 µM; EC50 (HeLa cell line; EC50 ≦ 100 nM): ≤ 0.1 µM; EC50 (HepG2 cell line; 100 nM < EC50 < 1 μM): 0.1 to 1 µM; EC50 (MDA-MB-231 cell line; EC50 ≦ 100 nM): ≤ 0.1 µM
< 50	< 50	< 50	≥ 50	≥ 50	< 50	≥ 1	≥ 1	≥ 1	≥ 1	COC(=O)c1cc2cc(CSc3cccc(NC(=O)c4cccc(C(F)(F)F)c4)c3)cnc2[nH]1 [OR1066, 5-[3-(3-Trifluoromethyl-benzoylamino)-phenylsulfanylmethyl]-1H-pyrrolo[2,3-b]pyridine-2-carboxylic acid methyl ester]	≥ 1	
< 50	< 50	< 50	< 50	< 50	< 50	≥ 1	≥ 1	≥ 1	≥ 1	COC(=O)c1cc2cc(CCc3cccc(NC(=S)Cc4cccc(C(F)(F)F)c4)c3)cnc2[nH]1 [OR1014, 5-(2-{3-[2-(3-Trifluoromethyl-phenyl)-thioacetylamino]-phenyl}-ethyl)-1H-pyrrolo[2,3-b]pyridine-2-carboxylic acid methyl ester]		EC50 (HUVEC cells; 100 nM < EC50 < 1 μM): 0.1 to 1 µM
≥ 50	≥ 50	≥ 50	≥ 50	≥ 50	≥ 50					CC(=O)c1cc2cc(CCc3cc(NC(=O)c4cc(N5CCN(C)CC5)cc(C(F)(F)F)c4)ccc3C)cnc2[nH]1 [OR1059, N-{3-[2-(2-Acetyl-1H-pyrrolo[2,3-b]pyridin-5-yl)-ethyl]-4-methyl-phenyl}-3-(4-methyl-piperazin-1-yl)-5-trifluoromethyl-benzamide]	≥ 1	EC50 (A549 cell line; 100 nM < EC50 < 1 μM): 0.1 to 1 µM; EC50 (HeLa cell line; 100 nM < EC50 < 1 μM): 0.1 to 1 µM; EC50 (HepG2 cell line; 100 nM < EC50 < 1 μM): 0.1 to 1 µM; EC50 (MDA-MB-231 cell line; 100 nM < EC50 < 1 μM): 0.1 to 1 µM
≥ 50	< 50	< 50	≥ 50			≥ 1	≥ 1	≥ 1	≥ 1	COC(=O)c1cc2cc(CCc3cc(NC(=O)c4cncc(C(F)(F)F)c4)ccc3Cl)cnc2[nH]1 [OR1008, 5-(2-{2-Chloro-5-[(5-trifluoromethyl-pyridine-3-carbonyl)-amino]-phenyl}-ethyl)-1H-pyrrolo[2,3-b]pyridine-2-carboxylic acid methyl ester]	≥ 1	

— US9550772B2, “Azaindole derivatives as multi kinase inhibitors” (ORIBASE PHARMA, priority 2012, dated 2017)
